From patent publication US20030139431A1 (priority 2001, published 2003)

Key:
hNPFF1 [1] = target: T1, hNPFF1 (Homo sapiens, UniProt Q9GZQ6); test: Binding affinity at cloned recombinant human NPFF1 receptor
T1 construct: expressed in transfected cells

hNPFF2 [2] = target: T2, hNPFF2 (Homo sapiens, UniProt Q9Y5X5); test: Binding affinity at cloned recombinant human NPFF2 receptor
T2 construct: expressed in transfected cells

rNPFF1 [3] = target: T3, rNPFF1 (Rattus norvegicus, UniProt Q9EP86); test: Functional assay (agonist potency, intrinsic activity) at cloned rat NPFF1 receptor; type: cell-based; conditions: for rNPFF1 IA (intrinsic activity): percent of maximum response elicited by neuropeptide FF, rat NPFF1; for EC50: recombinant rat NPFF1
T3 construct: expressed in transfected cells
Procedure: (§1) Intrinsic activity of a compound is measured as the percent of maximum response.

rNPFF2 [4] = target: T4, rNPFF2 (Rattus norvegicus, UniProt Q9EQD2); test: Functional assay (agonist potency, intrinsic activity) at cloned rat NPFF2 receptor; type: cell-based; conditions: for rNPFF2 IA (intrinsic activity): percent of maximum response elicited by neuropeptide FF, rat NPFF2; for EC50: recombinant rat NPFF2
T4 construct: expressed in transfected cells
Procedure: as §1

rNPFF2 [5] = target: T4, rNPFF2; test: Binding affinity at cloned recombinant rat NPFF2 receptor
rNPFF1 [6] = target: T3, rNPFF1; test: Binding affinity at cloned recombinant rat NPFF1 receptor
hNPFF1 [7] = target: T1, hNPFF1; test: Functional assay (agonist potency, intrinsic activity) at cloned human NPFF1 receptor; type: cell-based; conditions: for hNPFF1 IA (intrinsic activity): percent of maximum response elicited by neuropeptide FF, human NPFF1; for EC50: recombinant human NPFF1
Procedure: as §1

hNPFF2 [8] = target: T2, hNPFF2; test: Functional assay (agonist potency, intrinsic activity) at cloned human NPFF2 receptor; type: cell-based; conditions: for hNPFF2 IA (intrinsic activity): percent of maximum response elicited by neuropeptide FF, human NPFF2; for EC50: recombinant human NPFF2
Procedure: as §1

[9] = rat cloned NPFF receptors, based on IA and Ki

T3 sequence (Q9EP86 whole entry): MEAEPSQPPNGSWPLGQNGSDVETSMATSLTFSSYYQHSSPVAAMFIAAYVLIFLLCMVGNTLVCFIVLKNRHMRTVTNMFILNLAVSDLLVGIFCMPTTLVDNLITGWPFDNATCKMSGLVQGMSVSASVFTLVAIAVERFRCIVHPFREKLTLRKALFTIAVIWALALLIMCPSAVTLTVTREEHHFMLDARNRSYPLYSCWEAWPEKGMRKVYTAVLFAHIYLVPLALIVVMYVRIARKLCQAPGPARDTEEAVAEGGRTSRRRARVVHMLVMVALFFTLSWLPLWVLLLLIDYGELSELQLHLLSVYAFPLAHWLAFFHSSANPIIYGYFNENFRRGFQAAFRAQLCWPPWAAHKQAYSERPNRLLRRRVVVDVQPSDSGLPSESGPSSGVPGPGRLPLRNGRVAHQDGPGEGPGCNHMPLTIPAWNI
T2 sequence (Q9Y5X5 103-522): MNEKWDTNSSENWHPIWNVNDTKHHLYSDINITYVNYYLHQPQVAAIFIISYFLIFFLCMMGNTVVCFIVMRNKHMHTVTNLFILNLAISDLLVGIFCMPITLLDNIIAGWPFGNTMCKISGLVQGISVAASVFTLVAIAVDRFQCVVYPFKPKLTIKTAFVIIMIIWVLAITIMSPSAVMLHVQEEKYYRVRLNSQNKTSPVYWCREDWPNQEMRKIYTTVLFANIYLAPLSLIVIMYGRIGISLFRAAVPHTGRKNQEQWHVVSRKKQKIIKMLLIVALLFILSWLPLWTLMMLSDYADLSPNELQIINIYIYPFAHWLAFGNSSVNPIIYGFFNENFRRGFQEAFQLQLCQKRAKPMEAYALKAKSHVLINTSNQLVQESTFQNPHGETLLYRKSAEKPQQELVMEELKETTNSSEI
T4 sequence (Q9EQD2 whole entry): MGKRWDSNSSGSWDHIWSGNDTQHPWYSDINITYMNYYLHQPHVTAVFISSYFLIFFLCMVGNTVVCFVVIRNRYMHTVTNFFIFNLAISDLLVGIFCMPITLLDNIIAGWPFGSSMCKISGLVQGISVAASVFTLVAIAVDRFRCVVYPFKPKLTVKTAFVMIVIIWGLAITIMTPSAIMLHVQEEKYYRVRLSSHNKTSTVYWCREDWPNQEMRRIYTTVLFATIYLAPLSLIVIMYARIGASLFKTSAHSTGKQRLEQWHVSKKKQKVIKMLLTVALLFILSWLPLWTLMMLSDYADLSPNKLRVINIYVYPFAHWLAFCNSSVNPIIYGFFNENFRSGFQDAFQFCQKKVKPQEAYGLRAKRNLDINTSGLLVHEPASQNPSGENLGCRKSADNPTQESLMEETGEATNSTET
T1 sequence (Q9GZQ6 whole entry): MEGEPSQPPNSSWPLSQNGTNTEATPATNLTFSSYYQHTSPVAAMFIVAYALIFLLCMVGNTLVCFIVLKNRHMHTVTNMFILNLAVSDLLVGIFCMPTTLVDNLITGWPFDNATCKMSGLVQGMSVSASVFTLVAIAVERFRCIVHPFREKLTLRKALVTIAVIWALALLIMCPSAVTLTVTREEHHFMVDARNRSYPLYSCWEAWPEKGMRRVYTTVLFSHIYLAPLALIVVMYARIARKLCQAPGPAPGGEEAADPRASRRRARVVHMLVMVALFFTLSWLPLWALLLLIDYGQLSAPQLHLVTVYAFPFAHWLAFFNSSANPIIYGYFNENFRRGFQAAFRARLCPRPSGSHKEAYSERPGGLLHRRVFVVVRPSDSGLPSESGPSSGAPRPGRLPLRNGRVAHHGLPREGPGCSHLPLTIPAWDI

Ki (hNPFF1 [1]) [nM] | Ki (hNPFF2 [2]) [nM] | rNPFF1 IA (intrinsic activity) (rNPFF1 [3]) | EC50 (rNPFF1 [3]) [nM] | rNPFF2 IA (intrinsic activity) (rNPFF2 [4]) | EC50 (rNPFF2 [4]) [nM] | Ki (rNPFF2 [5]) [nM] | Ki (rNPFF1 [6]) [nM] | hNPFF1 IA (intrinsic activity) (hNPFF1 [7]) | EC50 (hNPFF1 [7]) [nM] | hNPFF2 IA (intrinsic activity) (hNPFF2 [8]) | EC50 (hNPFF2 [8]) [nM] | classification as agonist or antagonist at NPFF1 (rNPFF1 [3]; [9]) | classification as agonist or antagonist at NPFF2 (rNPFF2 [4]; [9]) | SMILES
240 | 2040 | Inactive | > 10000 | 16% NPFF | 3080 | > 10000 | 202 |  |  |  |  |  |  | Cc1nc(NC(=N)N)nc2ccccc12 [Compound 1001, N-(4-methyl-2-quinazolinyl)guanidine]
53 | 260 | Inactive | > 10000 | 66% NPFF | 1300 | 699 | 146 |  |  |  |  |  |  | Cc1nc(NC(=N)N)nc2ccc3ccccc3c12 [Compound 1007, N-(1-methylbenzo[f]quinazolin-3-yl)guanidine]
228 | 2920 | Inactive | > 10000 | 35% NPFF | 3160 | 1020 | 4 | Inactive | > 10000 | 43% NPFF | 4110 |  |  | Cc1nc(NC(=N)N)nc2cc(-c3ccccc3)ccc12 [Compound 1023, N-(4-methyl-7-phenyl-2-quinazolinyl)guanidine]
50 | 376 | 71% NPFF | 242 | 103% NPFF | 97 | 221 | 8 | Inactive |  | 84% NPFF | 625 |  |  | CCCCCc1ccc2nc(NC(=N)N)nc(C)c2c1 [Compound 2001, N-(4-methyl-6-pentyl-2-quinazolinyl)guanidine]
 |  | 40% NPFF | 194 | 101% NPFF | 124 | 262 | 392 |  |  |  |  |  |  | CCCCc1ccc2nc(NC(=N)N)nc(C)c2c1 [Compound 2004, N-(6-butyl-4-methyl-2-quinazolinyl)guanidine]
 |  | 56% NPFF | 137 | 81% NPFF | 105 | 268 | 88 |  |  |  |  |  |  | CCCCCCc1ccc2nc(NC(=N)N)nc(C)c2c1 [Compound 2005, N-(6-hexyl-4-methyl-2-quinazolinyl)guanidine]
 |  | 38% NPFF | 886 | 47% NPFF | 1950 | 3670 | 788 |  |  |  |  |  |  | CCCCCCCc1ccc2nc(NC(=N)N)nc(C)c2c1 [Compound 2006, N-(6-heptyl-4-methyl-2-quinazolinyl)guanidine]
46 | 1720 |  |  |  |  | 1220 | 50 | Inactive | > 10000 | Inactive | > 10000 | antagonists | antagonists | Cc1ccc2c(C)nc(NC(=N)N)nc2c1 [Compound 3001, N-(4,7-dimethyl-2-quinazolinyl)guanidine]
21 | 150 | Inactive | > 10000 | 68% NPFF | 404 | 556 | 30 |  |  |  |  |  |  | Cc1ccc2nc(NC(=N)N)cc(C)c2c1 [Compound 4001, N-(4,6-dimethyl-2-quinolinyl)guanidine]
50 | 232 | Inactive | > 10000 | 84% NPFF | 125 | 308 | 11 | Inactive | > 10000 | 69% NPFF | 314 |  |  | CCc1ccc2nc(NC(=N)N)cc(C)c2c1 [Compound 4002, N-(6-ethyl-4-methyl-2-quinolinyl)guanidine]
207 | 2120 | Inactive | > 10000 | 26% NPFF | 3160 | 1250 | 176 |  |  |  |  |  |  | Cc1cc(NC(=N)N)nc2ccc(-c3ccccc3)cc12 [Compound 4003, N-(4-methyl-6-phenyl-2-quinolinyl)guanidine]
113 | 1210 | Inactive | > 10000 | 65% NPFF | 1530 | 2580 | 153 |  |  |  |  |  |  | COc1ccc2nc(NC(=N)N)cc(C)c2c1 [Compound 4004, N-(6-methoxy-4-methyl-2-quinolinyl)guanidine]
 |  | Inactive | > 10000 | 17% NPFF | 2640 | 619 | 44 |  |  |  |  |  |  | Cc1cc(NC(=N)N)nc2cc(F)ccc12 [Compound 4007, N-(7-fluoro-4-methyl-2-quinolinyl)guanidine]
82 | 514 | Inactive | > 10000 | 65% NPFF | 411 | 882 | 64 |  |  |  |  |  |  | Cc1cc(C)c2c(C)cc(NC(=N)N)nc2c1 [Compound 4008, N-(4,5,7-trimethyl-2-quinolinyl)guanidine]
144 | 826 | Inactive | > 10000 | 70% NPFF | 3160 | 871 | 153 |  |  |  |  |  |  | Cc1cc(NC(=N)N)nc2ccc3ccccc3c12 [Compound 4009, N-(1-methylbenzo[f]quinolin-3-yl)guanidine]
 |  | 28% NPFF | 123 | 82% NPFF | 69 | 115 | 24 |  |  |  |  |  |  | CCCCc1ccc2nc(NC(=N)N)cc(C)c2c1 [Compound 5001, N-(6-butyl-4-methyl-2-quinolinyl)guanidine]
40 | 460 | 41% NPFF | 157 | 90% NPFF | 259 | 569 | 30 | Inactive | > 10000 | 75% NPFF | 1710 |  |  | CCCCCc1ccc2nc(NC(=N)N)cc(C)c2c1 [Compound 5002, N-(4-methyl-6-pentyl-2-quinolinyl)guanidine]
152 | 1170 | 27% NPFF | 440 | 57% NPFF | 9990 | 4420 | 532 | Inactive | > 10000 | 45% NPFF | 3160 |  |  | CCCCCCc1ccc2nc(NC(=N)N)cc(C)c2c1 [Compound 5003, N-(6-hexyl-4-methyl-2-quinolinyl)guanidine]
23 | 374 | Inactive | > 10000 | Inactive | > 10000 | 433 | 11 | Inactive | > 10000 | Inactive | > 10000 |  |  | Cc1cc(NC(=N)N)nc2ccccc12 [Compound 6001, N-(4-methyl-2-quinolinyl)guanidine]
157 | 952 | Inactive | > 10000 | Inactive | > 10000 | 883 | 91 |  |  |  |  |  |  | Cc1cc(NC(=N)N)nc2c(C)cccc12 [Compound 6002, N-(4,8-dimethyl-2-quinolinyl)guanidine]
28 | 113 | Inactive | > 10000 | Inactive | > 10000 | 203 | 21 |  |  |  |  |  |  | CCc1cc(NC(=N)N)nc2cc(C)ccc12 [Compound 6003, N-(4-ethyl-7-methyl-2-quinolinyl)guanidine]
